Experimental data: patent US20210171589A1, “TRUNCATED CARTILAGE-HOMING PEPTIDES AND PEPTIDE COMPLEXES AND METHODS OF USE THEREOF” (BLAZE BIOSCIENCE, INC., priority 2018, published 2021)
Bridge positions count the residues as written; N and C are the ends. Peptide text beside a SMILES is read from it.

Columns and labels:
[1] = tested on: cartilage (intervertebral discs, knee joints); assay: Whole body autoradiography of radiolabeled cartilage homing peptides; assay type: in vivo, Female Harlan athymic nude mice; conditions: for Homing of radiolabeled peptide to cartilage: mice, 100 nmol via tail vein injection, 5 minutes to 48 hours; for Signal of folded knotted peptide as compared to the linearized peptide of SEQ ID NO: 218: TABLE 8 versus TABLE 9
Protocol: This example illustrates peptide homing to cartilage mice 5 minutes to 48 hours after administration of a radiolabeled peptide. Signal from the radiolabeled peptides was found in all types of cartilage at each time point examined. Each peptide was radiolabeled by methylating […] as described in EXAMPLE 2. As such, the peptide may contain methyl or dimethyl lysines and a methylated or dimethlyated amino terminus. A dose of 100 nmol radiolabeled peptide was administered via tail vein injection in Female Harlan athymic nude mice, weighing 20-25 g. The experiment was done in duplicate (n=2 animals per group). Each radiolabeled peptide was allowed to freely circulate within the animal for the described time period before the animals were euthanized and sectioned.
Whole body autoradiography (WBA) sagittal sectioning was performed as follows. At the end of the dosing period, mice were frozen in a hexane/dry ice bath and then embedded in a frozen block of carboxymethylcellulose. […] Sections were allowed to dessicate in a freezer prior to imaging. For the autoradiography imaging, tape mounted thin sections were freeze dried and radioactive samples were exposed to phosphoimager plates. These plates were developed and the signal (densitometry) from each organ was normalized to the signal found in the cardiac blood of each animal. A signal in tissue darker than the signal expected from blood in that tissue indicates accumulation in a region, tissue, structure, or cell.

[2] = tested on: cartilage (intervertebral discs, knee joints); assay: as above; assay type: in vivo, Female Harlan athymic nude mice
[3] = tested on: cartilage and kidneys; assay: Peptide homing with intact kidneys (autoradiography); assay type: in vivo, Female Harlan athymic nude mice
Protocol: Additionally, the peptide can be retained in cartilage for hours after treatment. The SEQ ID NO: 150 peptide was radiolabeled as in EXAMPLE 4 and 100 nmol of peptide was injected into a mouse with intact kidneys.
This example describes a dosing scheme for administering peptides to mice without kidney ligation. The peptide administered had the sequence of SEQ ID NO: 150. The peptide was radiolabeled by methylating lysines and the N-terminus, so the actual binding agent may contain methyl or dimethyl lysine(s) and a methylated or dimethylated amino terminus.
A target dosage of 100 nmol of each peptide carrying 10-25 μCi of ^14C was administered to Female Harlan athymic nude mice by a tail vein injection. Each peptide was allowed to freely circulate within the animal for either 4 hours or 24 hours before the animals were euthanized and sectioned.
This example illustrates peptide homing to cartilage in animals with intact kidneys. At the end of the 4 hour or 24 hour dosing periods in EXAMPLE 6, mice were frozen in a hexane/dry ice bath and then frozen in a block of carboxymethylcellulose. […]

[4] = tested on: cartilage; assay: Peptide homing with kidney ligation (autoradiography); assay type: in vivo, Female Harlan athymic nude mice; conditions: mice with ligated kidneys, 50-100 nmol via tail vein injection
Protocol: This example describes a dosing scheme for administering peptides to mice in conjunction with kidney ligation. Different dosages of the peptides of SEQ ID NO:149 and SEQ ID NO:150 were administered to Female Harlan athymic nude mice, weighing 20 g-25 g, via tail vein injection (n=2 mice per peptide). The experiment was done in duplicates. The kidneys were ligated to prevent renal filtration of the peptides. Each peptide was radiolabeled by methylating lysines and the N-terminus, so the actual binding agent may contain methyl or dimethyl lysine(s) and a methylated or dimethylated amino terminus.
A target dosage of 50-100 nmol of each peptide carrying 10-25 uCi of ^14C was administered to Female Harlan athymic nude mice while anesthetized. Each peptide was allowed to freely circulate within the animal before the animals were euthanized and sectioned.
This example illustrates peptide homing to cartilage of mice with kidneys that were ligated prior to peptide administration. At the end of the dosing period in EXAMPLE 4, mice were frozen in a hexane/dry ice bath and then frozen in a block of carboxymethylcellulose. […]

[5] = Stability testing of peptide in solution, RP-HPLC; assay type: physicochemical; conditions: 5 mg/mL in 50 mM Tris, 5% Mannitol, pH 7.6
Protocol: This example describes stability testing of peptides of the present disclosure. A 5 mg/mL solution of SEQ ID NO: 149 (also disclosed as SEQ ID NO: 46; non-GS version of SEQ ID NO: 149/SEQ ID NO: 46 are shown in SEQ ID NO: 128 and SEQ ID NO: 205) was prepared in 50 mM Tris, 5% Mannitol, pH 7.6. The stability of SEQ ID NO: 149 in solution was assessed by stressing the sample at 40° C. for 10 days and analyzed by RP-HPLC side-by-side with an unstressed sample prepared under the same conditions and stored at −20° C. […] This change was predominantly the result of an increase in area of one predominant impurity peak eluting after the main peak in the sample that was exposed to the higher temperature. No other impurities present in the initial sample increased substantially and no substantial new impurities were seen.

Compound: GSGVPINVRSRGSRDSLDPSRRAGMRFGRSINSRSHSTP [SEQ ID NO: 218, reference compound]
- Signal of radiolabeled peptide in IVD as a Percentage of Blood ([1]; 3 hr, Intact Kidneys): 177 Percentage of Blood
- Homing of radiolabeled peptide to cartilage [1]: homed to cartilage to a much lesser extent
- Signal of radiolabeled peptide in IVD as a Percentage of Blood ([2]; 3 hr, Ligated Kidneys): 117 Percentage of Blood
- Signal of radiolabeled peptide in IVD as a Percentage of Blood ([2]; 24 hr, Intact Kidneys): 104 Percentage of Blood

Compound: CC[C@H](C)[C@@H]1NC(=O)[C@@H]2CSSC[C@H](NC(=O)[C@H](CCCCN)NC(=O)[C@@H](NC(=O)[C@H](CC(N)=O)NC(=O)[C@@H](NC(=O)[C@@H]3CCCN3C(=O)[C@@H](NC(=O)CNC(=O)[C@H](CO)NC(=O)CN)C(C)C)[C@@H](C)CC)C(C)C)C(=O)N[C@@H](CCCNC(=N)N)C(=O)NCC(=O)N[C@@H](CO)C(=O)N[C@@H](CCCNC(=N)N)C(=O)N[C@@H](CC(=O)O)C(=O)N[C@H]3CSSC[C@H](NC(=O)[C@H](CCCCN)NC(=O)[C@H](CO)NC(=O)[C@H](CC(N)=O)NC1=O)C(=O)N[C@@H](Cc1c[nH]cn1)C(=O)N[C@H](C(=O)N[C@H](C(=O)N1CCC[C@H]1C(=O)O)[C@@H](C)O)CSSC[C@H](NC(=O)[C@@H]1CCCN1C(=O)[C@H](CC(=O)O)NC(=O)[C@H](CC(C)C)NC3=O)C(=O)N[C@@H](CCCCN)C(=O)N[C@@H](CCCCN)C(=O)N[C@@H](C)C(=O)NCC(=O)N[C@@H](CCSC)C(=O)N[C@@H](CCCNC(=N)N)C(=O)N[C@@H](Cc1ccccc1)C(=O)NCC(=O)N[C@@H](CCCCN)C(=O)N2 [SEQ ID NO: 150] (H-GSGVPINVKCRGSRDCLDPCKKAGMRFGKCINSKCHCTP-OH; disulfide 10-30, 16-35, 20-37; N-terminus and C-terminus assumed)
- Peptide distribution (14C signal) ([3]; mice with intact kidneys, 100 nmol via tail vein injection, 4 hours or 24 hours): distribution in joint and other cartilage as well as kidneys
- Retention and tissue distribution in cartilage ([3]; mouse with intact kidneys, 100 nmol, 24 hours after administration): retention of and the tissue distribution in the cartilage
- Peptide distribution (14C signal) [4]: distribution in joint and other cartilage

Compound: GSGVPINVRCRGSRDCLDPCRRAGMRFGRCINSRCHCTP [SEQ ID NO: 149]
- Signal of folded knotted peptide as compared to the linearized peptide of SEQ ID NO: 218 ([1]; at 3 hours): ~20 fold
- Signal of folded knotted peptide as compared to the linearized peptide of SEQ ID NO: 218 ([1]; at 24 hours): ~50 fold
- Signal of radiolabeled peptide in IVD as a Percentage of Blood ([1]; intervertebral discs, 0.08 hours after 100 nmol via tail vein injection): 164 Percentage of Blood
- Signal of radiolabeled peptide in IVD as a Percentage of Blood ([1]; intervertebral discs, 0.5 hours after 100 nmol via tail vein injection): 369 Percentage of Blood
- Signal of radiolabeled peptide in IVD as a Percentage of Blood ([1]; intervertebral discs, 1 hour after 100 nmol via tail vein injection): 961 Percentage of Blood
- Signal of radiolabeled peptide in IVD as a Percentage of Blood ([1]; intervertebral discs, 3 hours after 100 nmol via tail vein injection): 3213 Percentage of Blood
- Signal of radiolabeled peptide in IVD as a Percentage of Blood ([1]; intervertebral discs, 8 hours after 100 nmol via tail vein injection): 3777 Percentage of Blood
- Signal of radiolabeled peptide in IVD as a Percentage of Blood ([1]; intervertebral discs, 24 hours after 100 nmol via tail vein injection): 5391 Percentage of Blood
- Signal of radiolabeled peptide in IVD as a Percentage of Blood ([1]; intervertebral discs, 48 hours after 100 nmol via tail vein injection): 3320 Percentage of Blood
- Signal of radiolabeled peptide in Knee Joints as a Percentage of Blood ([1]; 0.08 hours after 100 nmol via tail vein injection): 404 Percentage of Blood
- Signal of radiolabeled peptide in Knee Joints as a Percentage of Blood ([1]; 0.5 hours after 100 nmol via tail vein injection): 510 Percentage of Blood
- Signal of radiolabeled peptide in Knee Joints as a Percentage of Blood ([1]; 1 hour after 100 nmol via tail vein injection): 1114 Percentage of Blood
- Signal of radiolabeled peptide in Knee Joints as a Percentage of Blood ([1]; 3 hours after 100 nmol via tail vein injection): 4059 Percentage of Blood
- Signal of radiolabeled peptide in Knee Joints as a Percentage of Blood ([1]; 8 hours after 100 nmol via tail vein injection): 4990 Percentage of Blood
- Signal of radiolabeled peptide in Knee Joints as a Percentage of Blood ([1]; 24 hours after 100 nmol via tail vein injection): 2137 Percentage of Blood
- Signal of radiolabeled peptide in Knee Joints as a Percentage of Blood ([1]; 48 hours after 100 nmol via tail vein injection): 843 Percentage of Blood
- Homing of radiolabeled peptide to cartilage [1]: homed to and accumulated in the cartilage
- Purity by RP-HPLC of stressed sample ([5]; 40° C. for 10 days): 93.5%
- Visual inspection of the samples (solubility, precipitation) ([5]; 40° C. for 10 days versus −20° C.): no change in solubility
- Initial purity by RP-HPLC (non-stressed sample) ([5]; stored at −20° C.): 96.4%

Compound: GSKCRGSRDCLDPCKKAGMRFGKCINSKCHCTP [SEQ ID NO: 27]
- Peptide distribution (14C signal) [4]: distribution in nasal, spinal, tracheal, and other cartilage
